Results from patent US7732437B2, “Use of anti-histaminics for acute reduction of elevated intracranial pressure” (Janssen Pharmaceutica, NV., priority 2001, dated 2010).
Values belong to the compound of their own block, whether it stands above or below them.

How the values were obtained:
[1] = target: T1, human histamine H1-receptor (Homo sapiens, UniProt P35367); assay: Radioligand binding, histamine H1-receptor, competitive inhibition of [3H]Pyrilamine; settings: CHO-cells transfected with the human histamine H1-receptor, read-out: H1-antagonist activity (pIC50) (converted)
T1 construct: expressed in transfected cells; host or cells: CHO cells
T1 sequence (P35367 whole entry): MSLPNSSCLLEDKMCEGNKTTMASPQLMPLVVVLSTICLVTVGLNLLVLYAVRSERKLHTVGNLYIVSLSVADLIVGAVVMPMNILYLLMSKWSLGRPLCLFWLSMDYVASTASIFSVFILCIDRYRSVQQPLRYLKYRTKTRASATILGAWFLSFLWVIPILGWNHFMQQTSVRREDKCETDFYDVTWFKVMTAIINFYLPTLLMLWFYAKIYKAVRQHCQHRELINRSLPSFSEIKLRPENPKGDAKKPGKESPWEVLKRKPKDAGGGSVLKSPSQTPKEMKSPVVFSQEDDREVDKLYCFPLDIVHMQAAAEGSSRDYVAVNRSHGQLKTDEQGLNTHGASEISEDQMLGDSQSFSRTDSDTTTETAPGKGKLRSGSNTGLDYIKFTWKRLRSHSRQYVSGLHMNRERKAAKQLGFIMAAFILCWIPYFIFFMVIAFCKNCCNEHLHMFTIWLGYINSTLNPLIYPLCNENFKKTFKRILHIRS
Experimental: Competitive inhibition of [^3H] […] Incubation was done during 150 min at 22° C.

[2] = test system: Sprague-Dawley rats with closed head injury; assay: Closed Head Injury (CHI) model, severe head injury; settings: for Effect on ICP / Effect on blood pressure: 0.5 mg/kg/min for 10 min, severe head injury, first 15 minutes, 6 rats; for effect on the lowering of the blood pressure: rat, in vivo
[3] = bolus of 1 mg/kg in 1 min, then infusion of 0.5 mg/kg/min for 44 min

Compound: Cc1nc2n(C)c3ccccc3n2c(=O)c1CCN1CCC(C2c3ccccc3CCn3c2nc2ccccc23)CC1Cc1ccccc1 (single isomer, unassigned) [Compound 44]
- Decision (sequential statistical evaluation) [2, 3]: active
- Delta %: average change of the relative ICP from baseline over the treatment period [2, 3]: −14.8%

Compound: Cc1nc2ccccn2c(=O)c1CCN1CCC(C2c3ccccc3CCn3c2nc2ccccc23)C(C)C1 (single isomer, unassigned) [Compound 89]
- IC50 [1]: 794 nM

Compound: CC(CN(C)C)CN1c2ccccc2Sc2ccccc21 (centres unmarked) [Alimemazine, reference compound]
- Effect on ICP [2]: −

Compound: CN(C)CCC(c1ccc(Br)cc1)c1ccccn1 (centres unmarked) [Brompheniramine, reference compound]
- Effect on ICP [2]: −

Compound: CN1CCN(C(c2ccccc2)c2ccc(Cl)cc2)CC1 (centres unmarked) [Chlorcyclizine, reference compound]
- Effect on ICP [2]: −
- Effect on blood pressure [2]: 0
- effect on the lowering of the blood pressure [2]: no or little effect

Compound: CN1CCC[C@@H]1CCO[C@](C)(c1ccccc1)c1ccc(Cl)cc1 [Clemastine, reference compound]
- Effect on ICP [2]: −

Compound: Clc1ccc(Cn2c(CN3CCCC3)nc3ccccc32)cc1 [Clemizole, reference compound]
- Effect on ICP [2]: −

Compound: Cc1nc2sccn2c(=O)c1CCN1CCC(C2c3ccccc3CCn3c2nc2ccccc23)C(C)C1 (centres unmarked) [Compound 87]
- IC50 [1]: 251 nM

Compound: Cc1nc2sccn2c(=O)c1CCN1CCC(C)(C2c3ccccc3CCn3c2nc2ccccc23)CC1 (centres unmarked) [Compound 104]
- IC50 [1]: 100 nM

Compound: Cc1nc2sccn2c(=O)c1CCN1CCC(C2(C)c3ccccc3CCn3c2nc2ccccc23)CC1 (centres unmarked) [Compound 110]
- IC50 [1]: 126 nM

Compound: CC(C1=C(CCN(C)C)Cc2ccccc21)c1ccccn1 (centres unmarked) [Dimethindene, reference compound]
- Effect on ICP [2]: −

Compound: CN1CCC(OC(c2ccccc2)c2ccccc2)CC1 [Diphenylpyraline, reference compound]
- Effect on ICP [2]: −

Compound: CN1CCC(=C2c3ccccc3CC(=O)c3sccc32)CC1 [Ketotifen, reference compound]
- Effect on blood pressure [2]: 0
- effect on the lowering of the blood pressure [2]: no or little effect

Compound: CCOC(=O)N1CCC(=C2c3ccc(Cl)cc3CCc3cccnc32)CC1 [Loratidine, reference compound]
- Effect on ICP [2]: −

Compound: OC[C@@H](O)[C@@H](O)[C@H](O)[C@H](O)CO [Mannitol, mannitol, reference compound]
- mean reduction of ICP ([2]; i.v. mannitol 3 g over 45 min): about 20%
- effect of repeated infusion on ICP ([2]; mannitol i.v. 0.125 g/kg/min, same time windows): lowering of ICP
- Decision (sequential statistical evaluation) ([2]; mannitol infusion of 67 mg/kg/min for 45 min, 5 separate tests): active
- Delta %: average change of the relative ICP from baseline over the treatment period ([2]; mannitol infusion of 67 mg/kg/min for 45 min, 5 separate tests, listed as Mannitol^1, 67 mg/kg): −21.7%
- Delta %: average change of the relative ICP from baseline over the treatment period ([2]; mannitol infusion of 67 mg/kg/min for 45 min, 5 separate tests, listed as Mannitol^2, 67 mg/kg): −22.1%
- Delta %: average change of the relative ICP from baseline over the treatment period ([2]; mannitol infusion of 67 mg/kg/min for 45 min, 5 separate tests, listed as Mannitol^3, 67 mg/kg): −13.0%
- Delta %: average change of the relative ICP from baseline over the treatment period ([2]; mannitol infusion of 67 mg/kg/min for 45 min, 5 separate tests, listed as Mannitol^4, 67 mg/kg): −19.3%
- Delta %: average change of the relative ICP from baseline over the treatment period ([2]; mannitol infusion of 67 mg/kg/min for 45 min, 5 separate tests, listed as Mannitol^5, 67 mg/kg): −19.9%

Compound: O=c1[nH]c2ccccc2n1CCCN1CCN(C(c2ccccc2)c2ccccc2)CC1 [Oxatomide, reference compound]
- Effect on ICP [2]: −
- Effect on blood pressure [2]: −

Compound: Cc1nc2sccn2c(=O)c1CCN1CCC(=C(c2ccc(F)cc2)c2ccc(F)cc2)CC1 [Ritanserine, reference compound]
- Effect on blood pressure [2]: −

Compound: Cyclodextrine
- Effect on ICP [2]: −

Continued, in another order:

- IC50 [1]: 316 nM
Compound: Cc1nc2n(C)c3ccccc3n2c(=O)c1CCN1CCC(C2c3ccccc3CCn3c2nc2ccccc23)CC1Cc1ccccc1 (racemic) [Compound 15]
- Decision (sequential statistical evaluation) [2, 3]: active
- Delta %: average change of the relative ICP from baseline over the treatment period [2, 3]: −23.3%

- IC50 [1]: 631 nM
Compound: Cc1nc2n(C)c3ccccc3n2c(=O)c1CCN1CCC(C2c3ccccc3CCn3c2nc2ccccc23)CC1Cc1ccccc1 (single isomer, unassigned) [Compound 17]
- Decision (sequential statistical evaluation) [2, 3]: active
- Delta %: average change of the relative ICP from baseline over the treatment period [2, 3]: −8.9%

- IC50 [1]: 126 nM
Compound: Cc1nc2n(C)c3ccccc3n2c(=O)c1CCN1CCC(C2c3ccccc3CCn3c2nc2ccccc23)CC1Cc1ccccc1 (single isomer, unassigned) [Compound 46]

- IC50 [1]: 398 nM
Compound: Cc1nc2n(C)c3ccccc3n2c(=O)c1CCN1CCC(C2c3ccccc3CCn3c2nc2ccccc23)CC1Cc1ccccc1 (single isomer, unassigned) [Compound 57]

- IC50 [1]: 398 nM
Compound: Cc1nc2n(C)c3ccccc3n2c(=O)c1CCN1CCC(C2c3ccccc3CCn3c2nc2ccccc23)CC1Cc1ccccc1 (single isomer, unassigned) [Compound 58]

- IC50 [1]: 100 nM
Compound: Cc1nc2ccccn2c(=O)c1CCN1CCC(C2c3ccccc3CCn3c2nc2ccccc23)C(C)C1 (single isomer, unassigned) [Compound 94]

- IC50 [1]: 316 nM
Compound: CCn1c2ccccc2n2c(=O)c(CCN3CCC(C4c5ccccc5CCn5c4nc4ccccc45)CC3Cc3ccccc3)c(C)nc12 (centres unmarked) [Compound 12]

- IC50 [1]: 316 nM
Compound: Cc1nc2n(C)c3ccccc3n2c(=O)c1CCN1CCC(C2c3ccccc3CCn3c2nc2ccccc23)CC1Cc1ccccc1 (centres unmarked) [Compound 13]

- IC50 [1]: 25.1 nM
Compound: Cc1nc2n(C)c3ccccc3n2c(=O)c1CCN1CCC(C2c3ccccc3CCn3c2nc2ccccc23)CC1 (centres unmarked) [Compound 14]

- IC50 [1]: 398 nM
Compound: Cc1nc2n(Cc3ccccn3)c3ccccc3n2c(=O)c1CCN1CCC(C2c3ccccc3CCn3c2nc2ccccc23)CC1Cc1ccccc1 (centres unmarked) [Compound 20]

- IC50 [1]: 200 nM
Compound: CCOCCn1c2ccccc2n2c(=O)c(CCN3CCC(C4c5ccccc5CCn5c4nc4ccccc45)CC3Cc3ccccc3)c(C)nc12 (centres unmarked) [Compound 23]

- IC50 [1]: 631 nM
Compound: Cc1cncc(Cn2c3ccccc3n3c(=O)c(CCN4CCC(C5c6ccccc6CCn6c5nc5ccccc56)CC4Cc4ccccc4)c(C)nc23)n1 (centres unmarked) [Compound 27]

- IC50 [1]: 501 nM
Compound: COCCOCn1c2ccccc2n2c(=O)c(CCN3CCC(C4c5ccccc5CCn5c4nc4ccccc45)CC3Cc3ccccc3)c(C)nc12 (centres unmarked) [Compound 29]

- IC50 [1]: 794 nM
Compound: COCCOCCn1c2ccccc2n2c(=O)c(CCN3CCC(C4c5ccccc5CCn5c4nc4ccccc45)CC3Cc3ccccc3)c(C)nc12 (centres unmarked) [Compound 35]

- IC50 [1]: 631 nM
Compound: Cc1nc2n(CCOCCO)c3ccccc3n2c(=O)c1CCN1CCC(C2c3ccccc3CCn3c2nc2ccccc23)CC1Cc1ccccc1 (centres unmarked) [Compound 37]

- IC50 [1]: 316 nM
Compound: Cc1nc2n(C)c3ccccc3n2c(=O)c1CCN1CCC(C2c3ccccc3CCn3c2nc2ccccc23)CC1Cc1ccccc1 (centres unmarked) [Compound 48]

- IC50 [1]: 316 nM
Compound: Cc1nc2n(C)c3ccccc3n2c(=O)c1CCN1CCC(C2c3ccccc3CCn3c2nc2ccccc23)CC1Cc1ccccc1 (centres unmarked) [Compound 49]

- IC50 [1]: 251 nM
Compound: Cc1nc2n(C)c3ccccc3n2c(=O)c1CCN1CCC(C2c3ccccc3CCn3c2nc2ccccc23)CC1Cc1ccccc1 (centres unmarked) [Compound 50]

- IC50 [1]: 316 nM
Compound: CCOC(=O)Cn1c2ccccc2n2c(=O)c(CCN3CCC(C4c5ccccc5CCn5c4nc4ccccc45)CC3Cc3ccccc3)c(C)nc12 (centres unmarked) [Compound 53]

- IC50 [1]: 316 nM
Compound: CCOC(=O)Cn1c2ccccc2n2c(=O)c(CCN3CCC(C4c5ccccc5CCn5c4nc4ccccc45)CC3Cc3ccccc3)c(C)nc12 (centres unmarked) [Compound 54]

- IC50 [1]: 251 nM
Compound: Cc1nc2n(C)c3ccccc3n2c(=O)c1CCN1CCC(C2c3ccccc3CCn3c2nc2ccccc23)CC1Cc1ccccc1 (centres unmarked) [Compound 55]

- IC50 [1]: 200 nM
Compound: Cc1nc2ccccn2c(=O)c1CCN1CCC(C2c3ccccc3CCn3c2nc2ccccc23)CC1Cc1ccccc1 (centres unmarked) [Compound 81]
